{"source": "paper PMC4636954", "about": "(Journal of ethnopharmacology, 2015)", "key": {"μ opioid receptor [1]": {"target": "T1, μ opioid receptor (Homo sapiens, UniProt P35372)", "assay": "μ opioid competitive radioligand binding", "conditions": "for Opioid receptor displacement (%) μ: Tested at 10 µM"}, "μ opioid receptor [2]": {"target": "T1, μ opioid receptor", "assay": "In vitro GTPγS functional assay, μ-opioid", "type": "biochemical"}, "κ opioid receptor": {"target": "κ opioid receptor (Homo sapiens, UniProt P41145)", "assay": "κ opioid competitive radioligand binding", "conditions": "for Opioid receptor displacement (%) κ: Tested at 10 µM"}, "δ opioid receptor [3]": {"target": "T2, δ opioid receptor (Homo sapiens, UniProt P41143)", "assay": "δ opioid competitive radioligand binding", "conditions": "for Opioid receptor displacement (%) δ: Tested at 10 µM"}, "δ opioid receptor [4]": {"target": "T2, δ opioid receptor", "assay": "In vitro GTPγS functional assay, δ-opioid", "type": "biochemical"}, "[5]": {"test_system": "Adult male Swiss Webster mice", "assay": "Mouse tetrad assay", "conditions": "for Catalepsy Latency / Hotplate Latency (% MPE) / Tail-Flick Latency (% MPE) / Rectal temperature (°C): 30 min post-injection; for Rectal temperature (°C): change in core body temperature"}, "[6]": {"conditions": "ip, dose not stated or 'lower doses' (10–100 mg/kg tested)"}}, "note": "Read-outs that look alike come from different tables or passages of the source."}
{"compound": "COc1ccc(C[C@@H]2c3cc(Oc4cc(C[C@@H]5c6cc(OC)c(OC)cc6CCN5C)ccc4O)c(OC)cc3CCN2C)cc1", "note": "[Compound 10, neferine]", "values": [{"measurement": "Ki", "setting": "μ opioid receptor [1]", "result": "1.8 ± 0.2", "unit": "µM"}, {"measurement": "EC50", "setting": "μ opioid receptor [2]", "result": "> 21", "unit": "µM"}, {"measurement": "Functional character at μ opioid receptor by GTPγS assay", "setting": "μ opioid receptor [2]; in words", "result": "weak μ partial agonist"}, {"measurement": "Ki", "setting": "κ opioid receptor", "result": "3.3 ± 0.4", "unit": "µM"}, {"measurement": "Ki", "setting": "δ opioid receptor [3]", "result": "0.7 ± 0.1", "unit": "µM"}, {"measurement": "EC50", "setting": "δ opioid receptor [4]", "result": "7.9 ± 2.1", "unit": "µM"}]}
{"compound": "CCCCC/C=C\\C/C=C\\CCCCCCCC(=O)O", "note": "[Linoleic acid (LA), linoleic acid]", "values": [{"measurement": "Ki", "setting": "δ opioid receptor [3]", "result": "14.5 ± 2.4", "unit": "µM"}]}
{"compound": "COc1ccc(CC2c3cc(OC)c(OC)cc3CCN2C)cc1", "note": "(stereo not shown) [Compound 13, 4´,7-di-O-methylarmepavine]", "values": [{"measurement": "Opioid receptor displacement (%) μ", "setting": "μ opioid receptor [1]", "result": "did not show any significant displacements"}, {"measurement": "Opioid receptor displacement (%) κ", "setting": "κ opioid receptor", "result": "did not show any significant displacements"}, {"measurement": "Opioid receptor displacement (%) δ", "setting": "δ opioid receptor [3]", "result": "did not show any significant displacements"}]}
{"compound": "COc1cc2c3c(c1OC)-c1ccccc1C[C@H]3N(C)CC2", "note": "[Compound 1, nuciferine]", "values": [{"measurement": "Catalepsy Latency", "setting": "[5]; 10 mg/kg ip", "result": "3.875 ± 2.32", "unit": "s"}, {"measurement": "Hotplate Latency (% MPE)", "setting": "[5]; 10 mg/kg ip", "result": "6.99 ± 2.61", "unit": "% MPE"}, {"measurement": "Tail-Flick Latency (% MPE)", "setting": "[5]; 10 mg/kg ip", "result": "11.69 ± 6.074", "unit": "% MPE"}, {"measurement": "Rectal temperature (°C)", "setting": "[5]; 10 mg/kg ip", "result": "−0.49 ± 0.31", "unit": "°C"}, {"measurement": "Catalepsy Latency", "setting": "[5]; 30 mg/kg ip", "result": "1.750 ± 0.62", "unit": "s"}, {"measurement": "Hotplate Latency (% MPE)", "setting": "[5]; 30 mg/kg ip", "result": "3.69 ± 3.01", "unit": "% MPE"}, {"measurement": "Tail-Flick Latency (% MPE)", "setting": "[5]; 30 mg/kg ip", "result": "18.43 ± 10.50", "unit": "% MPE"}, {"measurement": "Rectal temperature (°C)", "setting": "[5]; 30 mg/kg ip", "result": "−0.91 ± 0.31", "unit": "°C"}, {"measurement": "Catalepsy Latency", "setting": "[5]; 75 mg/kg ip", "result": "3.500 ± 1.07", "unit": "s"}, {"measurement": "Hotplate Latency (% MPE)", "setting": "[5]; 75 mg/kg ip", "result": "0.68 ± 2.73", "unit": "% MPE"}, {"measurement": "Tail-Flick Latency (% MPE)", "setting": "[5]; 75 mg/kg ip", "result": "19.45 ± 6.16", "unit": "% MPE"}, {"measurement": "Rectal temperature (°C)", "setting": "[5]; 75 mg/kg ip", "result": "−1.68 ± 0.38", "unit": "°C"}, {"measurement": "Catalepsy Latency", "setting": "[5]; 100 mg/kg ip", "result": "1.500 ± 0.27", "unit": "s"}, {"measurement": "Hotplate Latency (% MPE)", "setting": "[5]; 100 mg/kg ip", "result": "21.78 ± 7.16", "unit": "% MPE"}, {"measurement": "Tail-Flick Latency (% MPE)", "setting": "[5]; 100 mg/kg ip", "result": "14.14 ± 15.52", "unit": "% MPE"}, {"measurement": "Rectal temperature (°C)", "setting": "[5]; 100 mg/kg ip", "result": "−3.8 ± 0.57", "unit": "°C"}, {"measurement": "Behavioral effects in tetrad assay (in words)", "setting": "[5]; 100 mg/kg/ip", "result": "only decreased locomotion and hypothermia at the same dose, but failed to display catalepsy and antinociceptive activity"}, {"measurement": "Behavioral effects in tetrad assay (in words)", "setting": "[5]; [6]", "result": "failed to show any cataleptic effect or toxicity in the form of tremors and convulsions"}]}
{"compound": "COc1cc2c(cc1OC)C(Cc1ccc(O)cc1)N(C)CC2", "note": "(stereo not shown) [Compound 4, armepavine]", "values": [{"measurement": "Ki", "setting": "μ opioid receptor [1]; read-out: μ Ki (µM) ± SEM", "result": "2.7 ± 0.8", "unit": "µM"}, {"measurement": "Ki", "setting": "κ opioid receptor; read-out: κ Ki (µM) ± SEM", "result": "13 ± 1.4", "unit": "µM"}, {"measurement": "Ki", "setting": "δ opioid receptor [3]; read-out: δ Ki (µM) ± SEM", "result": "23.8 ± 3.7", "unit": "µM"}]}
{"compound": "CCCCCCCCCCCCCCCC(=O)O", "note": "[Palmitic acid (PA), palmitic acid]", "values": [{"measurement": "Ki", "setting": "δ opioid receptor [3]", "result": "> 21.1", "unit": "µM"}]}
{"compound": "COc1cc2c(cc1O)[C@@H](Cc1ccc(O)cc1)N(C)CC2", "note": "[Compound 6, N-methylcoclaurine]", "values": [{"measurement": "Ki", "setting": "μ opioid receptor [1]; read-out: μ Ki (µM) ± SEM", "result": "4 ± 0.5", "unit": "µM"}, {"measurement": "Ki", "setting": "κ opioid receptor; read-out: κ Ki (µM) ± SEM", "result": "0.9 ± 0.1", "unit": "µM"}, {"measurement": "Ki", "setting": "δ opioid receptor [3]; read-out: δ Ki (µM) ± SEM", "result": "20.1 ± 3.1", "unit": "µM"}]}
{"compound": "O-methylcoclaurine [Compound 5]", "values": [{"measurement": "Ki", "setting": "μ opioid receptor [1]; read-out: μ Ki (µM) ± SEM", "result": "2 ± 0.3", "unit": "µM"}, {"measurement": "Ki", "setting": "κ opioid receptor; read-out: κ Ki (µM) ± SEM", "result": "3.5 ± 0.3", "unit": "µM"}, {"measurement": "Ki", "setting": "δ opioid receptor [3]; read-out: δ Ki (µM) ± SEM", "result": "22.6 ± 3.9", "unit": "µM"}]}
{"compound": "Oc1ccc(CC2NCCc3cc(O)c(O)cc32)cc1", "note": "(racemic) [Compound 11, (±)-higenamine]", "values": [{"measurement": "Opioid receptor displacement (%) μ", "setting": "μ opioid receptor [1]", "result": "did not show any significant displacements"}, {"measurement": "Opioid receptor displacement (%) κ", "setting": "κ opioid receptor", "result": "did not show any significant displacements"}, {"measurement": "Opioid receptor displacement (%) δ", "setting": "δ opioid receptor [3]", "result": "did not show any significant displacements"}]}
{"compound": "COc1cc2c(cc1O)C(Cc1ccc(O)cc1)NCC2", "note": "(stereo not shown) [Compound 7, coclaurine]", "values": [{"measurement": "Ki", "setting": "μ opioid receptor [1]", "result": "5 ± 0.7", "unit": "µM"}, {"measurement": "Catalepsy Latency", "setting": "[5]; 10 mg/kg ip", "result": "1.25 ± 0.25", "unit": "s"}, {"measurement": "Hotplate Latency (% MPE)", "setting": "[5]; 10 mg/kg ip", "result": "10.15 ± 4.45", "unit": "% MPE"}, {"measurement": "Tail-Flick Latency (% MPE)", "setting": "[5]; 10 mg/kg ip", "result": "16.57 ± 7.23", "unit": "% MPE"}, {"measurement": "Rectal temperature (°C)", "setting": "[5]; 10 mg/kg ip", "result": "0.17 ± 0.08", "unit": "°C"}, {"measurement": "Catalepsy Latency", "setting": "[5]; 30 mg/kg ip", "result": "2.37 ± 0.59", "unit": "s"}, {"measurement": "Hotplate Latency (% MPE)", "setting": "[5]; 30 mg/kg ip", "result": "5.46 ± 5.05", "unit": "% MPE"}, {"measurement": "Tail-Flick Latency (% MPE)", "setting": "[5]; 30 mg/kg ip", "result": "1.43 ± 6.95", "unit": "% MPE"}, {"measurement": "Rectal temperature (°C)", "setting": "[5]; 30 mg/kg ip", "result": "0.1 ± 0.15", "unit": "°C"}, {"measurement": "Catalepsy Latency", "setting": "[5]; 75 mg/kg ip", "result": "1.75 ± 0.41", "unit": "s"}, {"measurement": "Hotplate Latency (% MPE)", "setting": "[5]; 75 mg/kg ip", "result": "15.49 ± 3.57", "unit": "% MPE"}, {"measurement": "Tail-Flick Latency (% MPE)", "setting": "[5]; 75 mg/kg ip", "result": "13.95 ± 5.01", "unit": "% MPE"}, {"measurement": "Rectal temperature (°C)", "setting": "[5]; 75 mg/kg ip", "result": "−0.39 ± 0.05", "unit": "°C"}, {"measurement": "Catalepsy Latency", "setting": "[5]; 100 mg/kg ip", "result": "1.25 ± 0.25", "unit": "s"}, {"measurement": "Hotplate Latency (% MPE)", "setting": "[5]; 100 mg/kg ip", "result": "6.08 ± 1.9", "unit": "% MPE"}, {"measurement": "Tail-Flick Latency (% MPE)", "setting": "[5]; 100 mg/kg ip", "result": "10.07 ± 3.31", "unit": "% MPE"}, {"measurement": "Rectal temperature (°C)", "setting": "[5]; 100 mg/kg ip", "result": "−0.58 ± 0.23", "unit": "°C"}, {"measurement": "Behavioral effects in tetrad assay (in words)", "setting": "[5]; [6]", "result": "did not influence any significant behavioral effects with the exception of weak locomotor activity"}, {"measurement": "Ki", "setting": "κ opioid receptor", "result": "2.2 ± 0.2", "unit": "µM"}, {"measurement": "Ki", "setting": "δ opioid receptor [3]", "result": "21.1 ± 2", "unit": "µM"}]}
{"compound": "COc1ccc(C[C@@H]2c3cc(OC)c(OC)cc3CCN2C)cc1", "note": "[Compound 12, 4´-O-methylarmepavine]", "values": [{"measurement": "Opioid receptor displacement (%) μ", "setting": "μ opioid receptor [1]", "result": "did not show any significant displacements"}, {"measurement": "Opioid receptor displacement (%) κ", "setting": "κ opioid receptor", "result": "did not show any significant displacements"}, {"measurement": "Opioid receptor displacement (%) δ", "setting": "δ opioid receptor [3]", "result": "did not show any significant displacements"}]}
